These results are taken from EP3057950B1, “PHENYL LINKED QUINOLINYL MODULATORS OF ROR-GAMMA-T” (Janssen Pharmaceutica NV, priority 2013, dated 2015).

Assay [1] deals with T1, wild type human RORγt ligand binding domain (RORγt LBD) (Homo sapiens, UniProt P51449).
T1 construct: His-tag (N); TurboTEV protease cleavage site (ENLYFQG) (N); made in house; host or cells: E. coli (pHIS1, modified pET expression vector)
T1 sequence (P51449 269-508 limits assumed): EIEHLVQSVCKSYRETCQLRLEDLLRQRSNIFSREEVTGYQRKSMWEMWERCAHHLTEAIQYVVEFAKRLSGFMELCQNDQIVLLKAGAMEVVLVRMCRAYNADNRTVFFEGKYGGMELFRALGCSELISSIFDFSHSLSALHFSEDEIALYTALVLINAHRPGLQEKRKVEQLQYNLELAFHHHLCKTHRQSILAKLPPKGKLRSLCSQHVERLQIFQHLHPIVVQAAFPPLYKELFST
Nature of the assay: RORγt ThermoFluor® Assay (thermal shift, binding affinity). The settings on record: pH 7.0, estimated from concentration response curves. The gist of the method: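 Thermal shift assay on 0.065 mg/mL RORγt LBD with 60 µM 1,8-ANS in 100 mM Hepes pH 7.0, 10 mM NaCl, 2.5 mM GSH, 0.002% Tween-20. Heated at 1 °C/min, fluorescence read at 500 nm.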

For assay [2], the system named is IL-17 production by CD4 T cells. Nature of the assay: Human Th17 Assay (IL-17 production by CD4 T cells under Th17 differentiation conditions). The settings on record: 3 days, IL-17 in supernatant. Type of assay: cell-based. As to the method: The human Th17 assay tests the effect of RORγt modulatory compounds on IL-17 production by CD4 T cells under conditions which favor Th17 differentiation. Total CD4^+ T cells were isolated from the peripheral blood mononuclear cells (PBMC) of healthy donors using a CD4^+ T cell isolation kit II, following the manufacturer's instructions (Miltenyi Biotec). […] 50 µL of compound at titrated concentrations in DMSO were added into each well at final DMSO concentration at 0.2%. Cells were incubated for 1 hour, then 50 µL of Th17 cell differentiation medium was added to each well. The final concentrations of antibodies and cytokines (R&D Systems) in differentiation medium were: 3x10^6/mL anti-CD3/CD28 beads (prepared using human T cell activation/expansion kit, Miltenyi Biotec), 10 µg/mL anti-IL4, 10 µg/mL anti-IFNγ, 10 ng/mL […], 10 ng/mL IL23, 50 ng/mL IL6, 3 ng/mL TGFβ and 20 U/mL IL2. Cells were cultured at 37 °C and 5% CO2 for 3 days. Supernatants were collected and the accumulated IL-17 in culture was measured by using MULTI-SPOT® Cytokine Plate following manufacture's instruction (Meso Scale Discovery). The plate was read using Sector Imager 6000, and IL-17 concentration was extrapolated from the standard curve. The IC50s were determined by GraphPad.

The target of assay [3] is T2, wild type human RORγt LBD (Homo sapiens, UniProt P51449).
T2 construct: expressed in transfected cells; host or cells: HEK293T
T2 sequence (P51449 269-508 limits assumed): T1 sequence (P51449 269-508 limits assumed)
Kind of assay: RORγt Reporter Assay (GAL4-RORγt LBD luciferase in HEK293T cells). The class given is cell-based. The settings on record: HEK293T cells; for IC50: compounds for 24 hours, read-out: RORγt reporter Assay, IC50; for inhibition at 6 µM: HEK-293T, read-out: RORγt reporter Assay, % inhibition @ 6 µM, @ 6 µM. The gist of the method: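 HEK293T cells transiently co-transfected with GAL4-DBD–human RORγt LBD (or AF2 mutant) and GAL4-responsive firefly luciferase reporter; renilla luciferase normalised transfection and viability. Compounds applied 24 h in 5% lipid-reduced FCS; firefly/renilla ratio plotted against concentration.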

Where a name gives a salt, the structure may show the parent alone.

The term Kd denotes a measure of binding affinity in units of concentration. Usually IC50 stands for the midpoint of a concentration-inhibition curve. Consider `COc1nc2ccc(C(O)(c3cncn3C)C3CCN(C(C)=O)CC3)cc2c(Cl)c1-c1cccc(C(F)(F)F)c1` (single isomer, unassigned) [Example 1c, 1-(4-((4-Chloro-2-methoxy-3-(3-(trifluoromethyl)phenyl)quinolin-6-yl)(hydroxy)(1-methyl-1H-imidazol-5-yl)methyl)piperidin-1-yl)ethanone], for which the equilibrium dissociation constant (Kd) in assay [1] was 33 nM. For the same compound, 310 nM corresponded to half-maximal inhibition in assay [2] (IC50). Moreover, in assay [3], the “RORγt reporter Assay, % inhibition @ 6 µM” value is reported as 95% and the IC50 turned out to be 110 nM.
As a reminder, the inhibition is the relative decrease from the control value, in per cent. In the case of `COc1nc2ccc(C(O)(c3cnnn3C)c3cnc(C)n3C)cc2c(Cl)c1-c1ccccc1` (single isomer, unassigned) [Example 41b, (4-Chloro-2-methoxy-3-phenylquinolin-6-yl)(1,2-dimethyl-1H-imidazol-5-yl)(1-methyl-1H-1,2,3-triazol-5-yl)methanol], the Kd in assay [1] was 1.4 nM. For the same compound, it took 7 nM to reach half-maximal inhibition in assay [2] (IC50). Besides, in assay [3], the IC50 was 8.6 nM and the inhibition at 6 µM was 102%.
`COc1nc2ccc(C(O)(c3cncn3C)C3CCN(C(C)=O)CC3)cc2c(Cl)c1-c1cccc(C(F)(F)F)c1` (single isomer, unassigned) [Example 1b, 1-(4-((4-Chloro-2-methoxy-3-(3-(trifluoromethyl)phenyl)quinolin-6-yl)(hydroxy)(1-methyl-1H-imidazol-5-yl)methyl)piperidin-1-yl)ethanone]: the equilibrium dissociation constant (Kd) in assay [1] was 130 nM. Further, the IC50 in assay [2] (Homo sapiens, CD4+ T, 72 h) came to 400 nM; in assay [3], 160 nM. Besides, in assay [3], the inhibition at 6 µM stood at 89%.
As for `CC(=O)N1CCC(C(O)(c2ccccc2)c2cc(C)c3nc(C#N)c(-c4ccccc4)c(C#N)c3c2)CC1` (single isomer, unassigned) [Example 21c, 6-((1-Acetylpiperidin-4-yl)(hydroxy)(phenyl)methyl)-8-methyl-3-phenylquinoline-2,4-dicarbonitrile], the Kd in assay [1] is 110 nM. Besides, in assay [2] (Homo sapiens, CD4+ T, 72 h), the IC50 was found to be 180 nM. In addition, in assay [3], the “RORγt reporter Assay, % inhibition @ 6 µM” value was determined as 96% and the IC50 was found to be 190 nM.
For the compound `CC(=O)N1CCC(C(O)(c2ccc3nc(C(F)(F)F)c(-c4ccccc4)c(Cl)c3c2)c2cncn2C)CC1` (single isomer, unassigned) [Example 34c, 1-(4-((4-Chloro-3-phenyl-2-(trifluoromethyl)quinolin-6-yl)(hydroxy)(1-methyl-1H-imidazol-5-yl)methyl)piperidin-1-yl)ethanone], in assay [1], the Kd is 100 nM. Inhibition in assay [2] (Homo sapiens, CD4+ T, 72 h) was half-maximal at 260 nM (IC50). Moreover, in assay [3], the “RORγt reporter Assay, % inhibition @ 6 µM” value is 96% and the IC50 was found to be 270 nM.
In the case of `COc1nc2ccc(C(O)(c3ccc(C(F)(F)F)nc3)c3cncn3C)cc2c(Cl)c1-c1ccc(Cl)s1` (single isomer, unassigned) [Example 14b, [4-Chloro-3-(5-chlorothiophen-2-yl)-2-methoxyquinolin-6-yl](1-methyl-1H-imidazol-5-yl)[6-(trifluoromethyl)pyridin-3-yl]methanol], in assay [1], the Kd was 5.2 nM. In assay [2], this compound showed an IC50 of 79 nM. In assay [3], the “RORγt reporter Assay, % inhibition @ 6 µM” value was 53% and the IC50 worked out at 240 nM.
With `COc1nc2ccc(C(O)(c3cnnn3C)c3cnc(C)n3C)cc2c(Cl)c1-c1ccccc1` (single isomer, unassigned) [Example 41c, (4-Chloro-2-methoxy-3-phenylquinolin-6-yl)(1,2-dimethyl-1H-imidazol-5-yl)(1-methyl-1H-1,2,3-triazol-5-yl)methanol], the Kd in assay [1] was 6.5 nM. In assay [2], this compound yielded an IC50 of 210 nM. Further, in assay [3], the “RORγt reporter Assay, % inhibition @ 6 µM” value was 102% and the IC50 is 270 nM.
Consider `COc1nc2c(C)cc(C(O)(c3ccc(C(F)(F)F)nc3)c3cncn3C)cc2c(C#N)c1-c1ccc(OC(F)(F)F)cc1` (single isomer, unassigned) [Example 19b, 6-(Hydroxy(1-methyl-1H-imidazol-5-yl)(6-(trifluoromethyl)pyridin-3-yl)methyl)-2-methoxy-8-methyl-3-(4-(trifluoromethoxy)phenyl)quinoline-4-carbonitrile], for which, in assay [1], the Kd is 360 nM. Further, the IC50 in assay [2] (Homo sapiens, CD4+ T, 72 h) is 400 nM. In addition, in assay [3], the “RORγt reporter Assay, % inhibition @ 6 µM” value is listed as 94% and the IC50 is 300 nM.
With `COc1nc2ccc(C(O)(c3ccc(C(F)(F)F)nc3)c3cncn3C)cc2c(Cl)c1-c1ccc(C#N)cc1` (centres unmarked) [Example 16, 4-(4-Chloro-6-{hydroxy(1-methyl-1H-imidazol-5-yl)[6-(trifluoromethyl)pyridin-3-yl]methyl}-2-methoxyquinolin-3-yl)benzonitrile•TFA], in assay [1], the Kd is 27 nM. Moreover, the IC50 in assay [2] (Homo sapiens, CD4+ T, 72 h) stood at 81 nM. In assay [3], the IC50 turned out to be 200 nM and the inhibition at 6 µM came to 86%.
On to `Cc1cc(C(O)(c2ccc(Cl)cc2)c2cncn2C)cc2c(C#N)c(-c3ccccc3)c(C#N)nc12` (single isomer, unassigned) [Example 23c, 6-((4-Chlorophenyl)(hydroxy)(1-methyl-1H-imidazol-5-yl)methyl)-8-methyl-3-phenylquinoline-2,4-dicarbonitrile], for which the Kd in assay [1] is 150 nM. The compound also gave an IC50 in assay [2] (Homo sapiens, CD4+ T, 72 h) of 400 nM. In assay [3], the “RORγt reporter Assay, % inhibition @ 6 µM” value is on record as 100% and the IC50 was found to be 230 nM.
Consider `COc1nc2ccc(C(O)(c3cncn3C)c3cnnn3C)cc2c(Cl)c1-c1cccc(C(F)(F)F)c1` (single isomer, unassigned) [Example 3c, (4-Chloro-2-methoxy-3-(3-(trifluoromethyl)phenyl)quinolin-6-yl)(1-methyl-1H-1,2,3-triazol-5-yl)(1-methyl-1H-imidazol-5-yl)methanol], for which the Kd in assay [1] was 2.3 nM. Also, the IC50 turned out to be 43 nM in assay [2] and 6.6 nM in assay [3]. Besides, the “RORγt reporter Assay, % inhibition @ 6 µM” value in assay [3] is recorded as 98%.
With `COc1nc2ccc(C(O)(c3ccc(C(F)(F)F)nc3)c3cncn3C)cc2c(Cl)c1-c1cncnc1` (centres unmarked) [Example 10, (4-Chloro-2-methoxy-3-pyrimidin-5-ylquinolin-6-yl)(1-methyl-1H-imidazol-5-yl)[6-(trifluoromethyl)pyridin-3-yl]methanol•TFA], the Kd in assay [1] is 200 nM. Moreover, the IC50 in assay [2] (Homo sapiens, CD4+ T, 72 h) came to 1500 nM. In assay [3], the IC50 worked out at 320 nM and the inhibition at 6 µM was determined as 89%.
For `Cn1cncc1C(O)(c1ccc2nc(C(F)(F)F)c(-c3ccccc3)c(Cl)c2c1)c1ccccn1` (centres unmarked) [Example 61, (4-Chloro-3-phenyl-2-(trifluoromethyl)quinolin-6-yl)(1-methyl-1H-imidazol-5-yl)(pyridin-2-yl)methanol•TFA], in that order: 450 nM, 480 nM, 130 nM and 105%.
Turning to `Cc1nc(C)c(C(O)(c2ccc3nc(Cl)c(-c4ccccc4)c(Cl)c3c2)c2cncn2C)s1` (centres unmarked) [Example 68, (2,4-Dichloro-3-phenylquinolin-6-yl)(2,4-dimethylthiazol-5-yl)(1-methyl-1H-imidazol-5-yl)methanol], half-maximal inhibition in assay [2] (72 h) (IC50) required 20 nM.
With `COc1c(-c2ccccc2)c(Cl)nc2ccc(C(O)(c3cnnn3C)c3cnc(C)n3C)cc12` (single isomer, unassigned) [Example 40c, (2-Chloro-4-metboxy-3-phenylquinolin-6-yl)(1,2-dimethyl-1H-imidazol-5-yl)(1-methyl-1H-1,2,3-triazol-5-yl)methanol], the midpoint of inhibition in assay [2] (Homo sapiens, CD4+ T, 72 h), the IC50, lay at 210 nM. Moreover, the “RORγt reporter Assay, % inhibition @ 6 µM” value in assay [3] came to 103%.
Turning to `Cn1cncc1C(O)(c1ccc(Cl)cc1)c1ccc2nc(Cl)c(-c3ccccc3)c(Cl)c2c1` (centres unmarked) [Example 65, (4-Chlorophenyl)(2,4-dichloro-3-phenylquinolin-6-yl)(1-methyl-1H-imidazol-5-yl)methanol], in assay [2] (72 h), the midpoint of inhibition, the IC50, lay at 1800 nM.
